This is an account of results in the supplement of paper PMC10307832.

Experiment in all cases: relative viability (nuclei count vs DMSO), 5 days (fraction); higher = more cells survive
Compound in experiment [1]: C1/C(=C\C2=CC=CS2)/C(=O)/C(=C/C3=CC=CS3)/C1 + O=C(c1cc(Cc2n[nH]c(=O)c3ccccc23)ccc1F)N1CCN(C(=O)C2CC2)CC1 [Olaparib] (partner 8 µM)
Put shortly:
(§1)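 Values are medians from duplicate plates. Each reflects relative viability, defined as the nuclei count of treated wells over that of vehicle wells. Lung cancer cell lines in 1536-well plates were pin-tool dosed one day after seeding with one drug alone or with a fixed anchor-drug dose plus five library-drug doses (not always all listed) in √10 steps, then fixed, stained and imaged at 4× after 5 days.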

Compound in the experiment “TPCA-1 + Phenformin”: C1=CC(=CC=C1C2=CC(=C(S2)NC(=O)N)C(=O)N)F [TPCA-1] + N=C(N)NC(=N)NCCc1ccccc1 [Phenformin] (partner 250 µM)
Put shortly: as §1

Compound in experiment [2]: C[C@]12O[C@H](C[C@]1(O)CO)n1c3ccccc3c3c4c(c5c6ccccc6n2c5c31)CNC4=O [Lestaurtinib] + CC(=O)c1c(C)c2cnc(Nc3ccc(N4CCNCC4)cn3)nc2n(C2CCCC2)c1=O [Palbociclib] (partner 0.5 µM)
Put shortly: as §1

Compound in the experiment “Lestaurtinib + Olaparib”: C[C@]12O[C@H](C[C@]1(O)CO)n1c3ccccc3c3c4c(c5c6ccccc6n2c5c31)CNC4=O [Lestaurtinib] + O=C(c1cc(Cc2n[nH]c(=O)c3ccccc23)ccc1F)N1CCN(C(=O)C2CC2)CC1 [Olaparib] (partner 8 µM)
Put shortly: as §1

In the case of UMC-11, the relative viability came out at 0.462 in experiment [1] (first compound 0.2 µM); 0.347 in experiment [1] (first compound 0.6325 µM); 0.405 in experiment [1] (first compound 2 µM); 0.475 in experiment [1] (first compound 6.325 µM); 0.391 in experiment [1] (first compound 20 µM); 0.373 with TPCA-1 + Phenformin (first compound 0.04 µM). The relative viability was determined as 0.299 in the experiment with TPCA-1 + Phenformin (first compound 0.1265 µM); 0.36 with TPCA-1 + Phenformin (first compound 0.4 µM); 0.307 with TPCA-1 + Phenformin (first compound 1.265 µM); 0.171 in the experiment with TPCA-1 + Phenformin (first compound 4 µM); 0.344 in experiment [2] (first compound 0.005 µM); 0.294 in experiment [2] (first compound 0.01581 µM). Also, the relative viability turned out to be 0.33 in experiment [2] (first compound 0.05 µM); 0.215 in experiment [2] (first compound 0.1581 µM); 0.198 in experiment [2] (first compound 0.5 µM); 0.402 in the experiment with Lestaurtinib + Olaparib (first compound 0.005 µM); 0.466 with Lestaurtinib + Olaparib (first compound 0.01581 µM); 0.384 in the experiment with Lestaurtinib + Olaparib (first compound 0.05 µM). Further, the relative viability in the experiment with Lestaurtinib + Olaparib (first compound 0.1581 µM) is 0.273; with Lestaurtinib + Olaparib (first compound 0.5 µM), 0.171.
